Counter-ions that a name gives are not always drawn.
System: women with severe chronic bladder pain
Assay: Treatment of pelvic pain of bladder origin with dextroamphetamine sulfate (two case reports)
Format: in vivo, human
Details: for effect of earlier conventional therapy on bladder pain (patient's claim): before dextroamphetamine sulfate
Excerpt: Treatment of Pelvic Pain of Bladder Origin with Dextroamphetamine Sulfate.
Two women with severe chronic bladder pain unresponsive to conventional therapy were offered a novel therapy with dextroamphetamine sulfate. In the first patient, the bladder pain started […] in an intermittent manner for six months and then it became daily. The pain was described as a constant feeling of urgency and pain from the urethra to the bladder on walking. They scored an 18 on the pelvic pain and urging/frequency PST. A laparoscopy […] found minimal endometriosis. A cystoscopy was negative as were repeated urine cultures. […] They failed a water load test excreting only 1000 mL urine after standing 4 hours after drinking 1500 mL.
In the second patient, the pain also began intermittently for six months […]. The pain then began occurring daily and was worse with intercourse and for three days premenstrually. The pain was described as a constant feeling of pressure in the bladder with intense pain after urination. Urine cultures were negative and empirical antibiotics provided no relief. They also failed the water load test.
Dextroamphetamine sulfate spansules (10 mg) were given twice daily to the first patient and once daily to the second patient.

[1] = first patient, spansules 10 mg twice daily
[2] = second patient, spansules 10 mg once daily

Row | Structure (SMILES) | symptom status after being weaned off the drug (first patient, after 1.5 years on medication) | bladder pain response [1] | time pain free while remaining on medication [1] [years] | symptoms on interruption and resumption of medication (second patient, forgot their pills on a short trip) | bladder pain response [2] | time remaining pain free [2] | effect of earlier conventional therapy on bladder pain (patient's claim) (first patient)
1 | C[C@H](N)Cc1ccccc1 [Dextroamphetamine sulfate, dextroamphetamine sulfate] | remained symptom free for six months | pain completely disappeared within two days | 1.5 | symptoms returned immediately but then disappeared immediately upon resumption of medication | pain decreased immediately and gradually improved daily for one week when it completely disappeared | remained pain free for four months | –
2 | CCN(CC)CC#CCOC(=O)C(O)(c1ccccc1)C1CCCCC1 (centres unmarked) [ditropan] | – | – | – | – | – | – | made it worse
3 | CC(C)(C)NC(=O)[C@H]1CC[C@H]2[C@@H]3CC[C@H]4NC(=O)C=C[C@]4(C)[C@H]3CC[C@]12C [finasteride] | – | – | – | – | – | – | made it worse
